Experimental data: paper PMC11576293, “New series of 4,6-diaryl pyrimidines: facile synthesis and antiproliferative activity as dual EGFR/VEGFR-2 inhibitors” (Frontiers in Chemistry, 2024)

Assays:
Assay in all cases: NCI-60 single-dose screen
Format in all cases: cell-based
MCF7 = details: Homo sapiens, single dose 10 µM, '-' = no inhibition, read-out: % Growth Inhibition
Description: (§1) The National Cancer Institute’s Developmental Therapeutic Program (www.dtp.nci.nih.gov) has tested compounds 9–29 (except compounds 21 and 22) against 60 cancer cell lines from nine types (leukemia, lung, colon, CNS, melanoma, ovarian, renal, prostate, and breast cancer) at a single dose (10 μM) ([El-Sherief et al., 2018]). […] The most sensitive cells included leukemia (SR, K-562, and MOLT-4), lung (NCI-H522, […], and EKVX), breast (MCF-7 and T-47D), colon (HCT-15 and HT-29), and ovarian (NCI/ADR-RES).
(§2) The National Cancer Institute’s Developmental Therapeutic Program (www.dtp.nci.nih.gov) evaluated compounds 9–29 (excluding 21 and 22) against 60 cancer cell lines from nine categories (leukemia, lung, colon, CNS, melanoma, ovarian, renal, prostate, and breast cancer) at a single dose (10 μM) ([El-Sherief et al., 2018]). See Supplementary Material A1 for more details.

PC-3 = details: Homo sapiens, single dose 10 µM, '-' = no inhibition, read-out: % Growth Inhibition
Description: as §1, §2

HCC-2998 = details: Homo sapiens, single dose 10 µM, '-' = no inhibition, read-out: % Growth Inhibition
Description: as §1, §2

KM12 = details: Homo sapiens, single dose 10 µM, '-' = no inhibition, read-out: % Growth Inhibition
Description: as §1, §2

MDA-MB-435 = details: Homo sapiens, single dose 10 µM, '-' = no inhibition, read-out: % Growth Inhibition
Description: as §1, §2

786-0 = details: Homo sapiens, single dose 10 µM, '-' = no inhibition, read-out: % Growth Inhibition
Description: as §1, §2

SR = details: Homo sapiens, single dose 10 µM, '-' = no inhibition, read-out: % Growth Inhibition
Description: as §1, §2

HT29 = details: Homo sapiens, HT-29, single dose 10 µM, '-' = no inhibition, read-out: % Growth Inhibition
Description: as §1, §2

A498 = details: Homo sapiens, single dose 10 µM, '-' = no inhibition, read-out: % Growth Inhibition
Description: as §1, §2

SW-620 = details: Homo sapiens, single dose 10 µM, '-' = no inhibition, read-out: % Growth Inhibition
Description: as §1, §2

RXF 393 = details: Homo sapiens, single dose 10 µM, '-' = no inhibition, read-out: % Growth Inhibition
Description: as §1, §2

SK-MEL-2 = details: Homo sapiens, single dose 10 µM, '-' = no inhibition, read-out: % Growth Inhibition
Description: as §1, §2

MDA-MB-468 = details: Homo sapiens, single dose 10 µM, '-' = no inhibition, read-out: % Growth Inhibition
Description: as §1, §2

IGROV1 = details: Homo sapiens, IGROV-1, single dose 10 µM, '-' = no inhibition, read-out: % Growth Inhibition
Description: as §1, §2

HCT-116 = details: Homo sapiens, single dose 10 µM, '-' = no inhibition, read-out: % Growth Inhibition
Description: as §1, §2

SF-268 = details: Homo sapiens, single dose 10 µM, '-' = no inhibition, read-out: % Growth Inhibition
Description: as §1, §2

OVCAR-5 = details: Homo sapiens, single dose 10 µM, '-' = no inhibition, read-out: % Growth Inhibition
Description: as §1, §2

NCI-H322M = details: Homo sapiens, single dose 10 µM, '-' = no inhibition, read-out: % Growth Inhibition
Description: as §1, §2

CCRF-CEM = details: Homo sapiens, single dose 10 µM, '-' = no inhibition, read-out: % Growth Inhibition
Description: as §1, §2

HS 578T = details: Homo sapiens, single dose 10 µM, '-' = no inhibition, read-out: % Growth Inhibition
Description: as §1, §2

SF-539 = details: Homo sapiens, single dose 10 µM, '-' = no inhibition, read-out: % Growth Inhibition
Description: as §1, §2

ACHN 1 = details: Homo sapiens, single dose 10 µM, '-' = no inhibition, read-out: % Growth Inhibition
Description: as §1, §2

BT-549 = details: Homo sapiens, single dose 10 µM, '-' = no inhibition, read-out: % Growth Inhibition
Description: as §1, §2

UACC-257 = details: Homo sapiens, single dose 10 µM, '-' = no inhibition, read-out: % Growth Inhibition
Description: as §1, §2

T-47D = details: Homo sapiens, T47D, single dose 10 µM, '-' = no inhibition, read-out: % Growth Inhibition
Description: as §1, §2

NCI-H23 = details: Homo sapiens, single dose 10 µM, '-' = no inhibition, read-out: % Growth Inhibition
Description: as §1, §2

RPMI-8226 = details: Homo sapiens, single dose 10 µM, '-' = no inhibition, read-out: % Growth Inhibition
Description: as §1, §2

M14 = details: Homo sapiens, single dose 10 µM, '-' = no inhibition, read-out: % Growth Inhibition
Description: as §1, §2

K-562 = details: Homo sapiens, K562, single dose 10 µM, '-' = no inhibition, read-out: % Growth Inhibition
Description: as §1, §2

SK-MEL-28 = details: Homo sapiens, single dose 10 µM, '-' = no inhibition, read-out: % Growth Inhibition
Description: as §1, §2

HL-60(TB) = details: Homo sapiens, single dose 10 µM, '-' = no inhibition, read-out: % Growth Inhibition
Description: as §1, §2

SK-MEL-5 = details: Homo sapiens, single dose 10 µM, '-' = no inhibition, read-out: % Growth Inhibition
Description: as §1, §2

OVCAR-4 = details: Homo sapiens, single dose 10 µM, '-' = no inhibition, read-out: % Growth Inhibition
Description: as §1, §2

SK-OV-3 = details: Homo sapiens, single dose 10 µM, '-' = no inhibition, read-out: % Growth Inhibition
Description: as §1, §2

TK-10 = details: Homo sapiens, single dose 10 µM, '-' = no inhibition, read-out: % Growth Inhibition
Description: as §1, §2

NCI-H460 = details: Homo sapiens, single dose 10 µM, '-' = no inhibition, read-out: % Growth Inhibition
Description: as §1, §2

SNB-75 = details: Homo sapiens, single dose 10 µM, '-' = no inhibition, read-out: % Growth Inhibition
Description: as §1, §2

COLO 205 = details: Homo sapiens, single dose 10 µM, '-' = no inhibition, read-out: % Growth Inhibition
Description: as §1, §2

HOP-62 = details: Homo sapiens, single dose 10 µM, '-' = no inhibition, read-out: % Growth Inhibition
Description: as §1, §2

EKVX = details: Homo sapiens, single dose 10 µM, '-' = no inhibition, read-out: % Growth Inhibition
Description: as §1, §2

SF-295 = details: Homo sapiens, single dose 10 µM, '-' = no inhibition, read-out: % Growth Inhibition
Description: as §1, §2

U251 = details: Homo sapiens, U-251, single dose 10 µM, '-' = no inhibition, read-out: % Growth Inhibition
Description: as §1, §2

HOP-92 = details: Homo sapiens, single dose 10 µM, '-' = no inhibition, read-out: % Growth Inhibition
Description: as §1, §2

A549/ATCC = details: Homo sapiens, single dose 10 µM, '-' = no inhibition, read-out: % Growth Inhibition
Description: as §1, §2

DU-145 = details: Homo sapiens, single dose 10 µM, '-' = no inhibition, read-out: % Growth Inhibition
Description: as §1, §2

OVCAR-8 = details: Homo sapiens, single dose 10 µM, '-' = no inhibition, read-out: % Growth Inhibition
Description: as §1, §2

SN12C = details: Homo sapiens, single dose 10 µM, '-' = no inhibition, read-out: % Growth Inhibition
Description: as §1, §2

MALME-3M = details: Homo sapiens, single dose 10 µM, '-' = no inhibition, read-out: % Growth Inhibition
Description: as §1, §2

Question: How did the inhibition at 10 µM (MCF7) turn out when `CCCSc1nc(-c2ccc(Cl)cc2)cc(-c2ccc(OC)cc2)n1` [Compound 11, 4-(4-Chlorophenyl)-6-(4-methoxyphenyl)-2-(propylthio)pyrimidine] was run?
Answer: The inhibition at 10 µM was 4.02%.

Question: And the inhibition at 10 µM (PC-3)?
Answer: Its inhibition at 10 µM is < 0%.

Question: What about the inhibition at 10 µM (HCC-2998) of the same compound?
Answer: The inhibition at 10 µM was < 0%.

Question: And the inhibition at 10 µM (KM12)?
Answer: The inhibition at 10 µM was 1.24%.

Question: And the inhibition at 10 µM (MDA-MB-435)?
Answer: Its inhibition at 10 µM is 1.63%.

Question: And the inhibition at 10 µM (786-0)?
Answer: Its inhibition at 10 µM is 0.11%.

Question: And the inhibition at 10 µM (SR)?
Answer: Its inhibition at 10 µM is 14.6%.

Question: What about the inhibition at 10 µM (HT29) of the same compound?
Answer: Its inhibition at 10 µM is 10.7%.

Question: And the inhibition at 10 µM (A498)?
Answer: Its inhibition at 10 µM is 2.73%.

Question: What about the inhibition at 10 µM (SW-620) of the same compound?
Answer: Its inhibition at 10 µM is 0.11%.

Question: What about the inhibition at 10 µM (RXF 393) of the same compound?
Answer: Its inhibition at 10 µM is < 0%.

Question: And the inhibition at 10 µM (SK-MEL-2)?
Answer: The inhibition at 10 µM was 7.18%.

Question: And the inhibition at 10 µM (MDA-MB-468)?
Answer: The inhibition at 10 µM was 7.92%.

Question: And the inhibition at 10 µM (IGROV1)?
Answer: Its inhibition at 10 µM is < 0%.

Question: And the inhibition at 10 µM (HCT-116)?
Answer: Its inhibition at 10 µM is < 0%.

Question: What about the inhibition at 10 µM (SF-268) of the same compound?
Answer: Its inhibition at 10 µM is < 0%.

Question: What about the inhibition at 10 µM (OVCAR-5) of the same compound?
Answer: The inhibition at 10 µM was < 0%.

Question: And the inhibition at 10 µM (NCI-H322M)?
Answer: Its inhibition at 10 µM is < 0%.

Question: What about the inhibition at 10 µM (CCRF-CEM) of the same compound?
Answer: Its inhibition at 10 µM is 1.71%.

Question: What about the inhibition at 10 µM (HS 578T) of the same compound?
Answer: Its inhibition at 10 µM is < 0%.

Question: And the inhibition at 10 µM (SF-539)?
Answer: The inhibition at 10 µM was < 0%.

Question: What about the inhibition at 10 µM (ACHN 1) of the same compound?
Answer: Its inhibition at 10 µM is < 0%.

Question: What about the inhibition at 10 µM (BT-549) of the same compound?
Answer: The inhibition at 10 µM was < 0%.

Question: And the inhibition at 10 µM (UACC-257)?
Answer: Its inhibition at 10 µM is < 0%.

Question: And the inhibition at 10 µM (T-47D)?
Answer: Its inhibition at 10 µM is 8.26%.

Question: And the inhibition at 10 µM (NCI-H23)?
Answer: Its inhibition at 10 µM is < 0%.

Question: What about the inhibition at 10 µM (RPMI-8226) of the same compound?
Answer: The inhibition at 10 µM was < 0%.

Question: What about the inhibition at 10 µM (M14) of the same compound?
Answer: The inhibition at 10 µM was < 0%.

Question: And the inhibition at 10 µM (K-562)?
Answer: The inhibition at 10 µM was 6.55%.

Question: What about the inhibition at 10 µM (SK-MEL-28) of the same compound?
Answer: Its inhibition at 10 µM is < 0%.

Question: What about the inhibition at 10 µM (HL-60(TB)) of the same compound?
Answer: Its inhibition at 10 µM is 13.5%.

Question: What about the inhibition at 10 µM (SK-MEL-5) of the same compound?
Answer: Its inhibition at 10 µM is 3.98%.

Question: What about the inhibition at 10 µM (OVCAR-4) of the same compound?
Answer: Its inhibition at 10 µM is < 0%.

Question: And the inhibition at 10 µM (SK-OV-3)?
Answer: Its inhibition at 10 µM is < 0%.

Question: What about the inhibition at 10 µM (TK-10) of the same compound?
Answer: Its inhibition at 10 µM is < 0%.

Question: And the inhibition at 10 µM (NCI-H460)?
Answer: The inhibition at 10 µM was < 0%.

Question: And the inhibition at 10 µM (SNB-75)?
Answer: Its inhibition at 10 µM is < 0%.

Question: What about the inhibition at 10 µM (COLO 205) of the same compound?
Answer: The inhibition at 10 µM was < 0%.

Question: And the inhibition at 10 µM (HOP-62)?
Answer: Its inhibition at 10 µM is < 0%.

Question: And the inhibition at 10 µM (EKVX)?
Answer: The inhibition at 10 µM was 6.92%.

Question: What about the inhibition at 10 µM (SF-295) of the same compound?
Answer: The inhibition at 10 µM was 6.79%.

Question: And the inhibition at 10 µM (U251)?
Answer: Its inhibition at 10 µM is 5.99%.

Question: What about the inhibition at 10 µM (HOP-92) of the same compound?
Answer: Its inhibition at 10 µM is < 0%.

Question: What about the inhibition at 10 µM (A549/ATCC) of the same compound?
Answer: Its inhibition at 10 µM is 6.74%.

Question: What about the inhibition at 10 µM (DU-145) of the same compound?
Answer: Its inhibition at 10 µM is 0.44%.

Question: What about the inhibition at 10 µM (OVCAR-8) of the same compound?
Answer: The inhibition at 10 µM was 2.49%.

Question: What about the inhibition at 10 µM (SN12C) of the same compound?
Answer: Its inhibition at 10 µM is 6.25%.

Question: And the inhibition at 10 µM (MALME-3M)?
Answer: The inhibition at 10 µM was < 0%.
